This data set in a line: Solubility tests of biocides in different solvents. The text has this:
The solubility of various herbicides, fungicides and insecticides has been tested using different solvents.

Setting [1] is: in 100 ml of solvent C8-C10 fatty acid dimethyl amide (1:1) (Example 11).
[2] abbreviates: in 100 ml of solvent C8-C10 fatty acid methyl ester (Comparative Example C14).
The mark [3] stands for this setting: in 100 ml of solvent C8 fatty acid dimethylamide (Example 9).
[4] abbreviates: in 100 ml of solvent C10 fatty acid dimethyl amide (Example 10).
The mark [5] stands for this setting: in 100 ml of solvent C18 fatty acid dimethyl amide (Comparative Example C13).

Regarding `Cc1c(COC(=O)[C@@H]2[C@H](/C=C(\Cl)C(F)(F)F)C2(C)C)cccc1-c1ccccc1` (racemic) [Bifenthrin], the Solubility under setting [1] came out at 34 percent by weight; the Solubility under setting [2] amounted to 0 percent by weight; the Solubility under setting [3] is 30 percent by weight; the Solubility under setting [4] is given as 31 percent by weight; the Solubility under setting [5] is recorded as 10 percent by weight.

`O=C(NC(=O)c1c(F)cccc1F)Nc1ccc(OC(F)(F)C(F)OC(F)(F)F)c(Cl)c1` (stereo not drawn) [Novaluron]: the Solubility is, setting by setting: under setting [1], 32 percent by weight; under setting [2], 1 percent by weight; under setting [3], 28 percent by weight; under setting [4], 28 percent by weight; under setting [5], 8 percent by weight.

Turning to `CCOc1cc(Oc2ccc(C(F)(F)F)cc2Cl)ccc1[N+](=O)[O-]` [Oxyfluorfen], the Solubility is listed as 10 percent by weight (in 100 ml of solvent C6-C12 fatty alcohol + 6PO (Comparative Example C4)); 12 percent by weight (in 100 ml of solvent C6 fatty acid dimethyl amide (Comparative Example C1)); 31 percent by weight (in 100 ml of solvent C8-C10 fatty acid dimethyl amide (1:1) (Example 3)); 3 percent by weight (in 100 ml of solvent C8-C10 fatty acid methyl ester (Comparative Example C3)); 25 percent by weight (in 100 ml of solvent C8 fatty acid dimethylamide (Example 1)); 28 percent by weight (in 100 ml of solvent C10 fatty acid dimethyl amide (Example 2)). Further, the Solubility was 7 percent by weight (in 100 ml of solvent C12-C15 benzoate (Comparative Example C5)), 27 percent by weight (in 100 ml of solvent C12 fatty acid dimethyl amide (Example 4)), 19 percent by weight (in 100 ml of solvent C18 fatty acid dimethyl amide (Comparative Example C2)) and 4 percent by weight (in 100 ml of solvent Di-C8 alkyl carbonate (Comparative Example C6)).

Regarding `CC(C)(C)C(O)(CCc1ccc(Cl)cc1)Cn1cncn1` (stereo not drawn) [Tebucanazole], the Solubility was 18 percent by weight (in 100 ml of solvent C6 fatty acid dimethyl amide (Comparative Example C7)); 39 percent by weight (in 100 ml of solvent C8-C10 fatty acid dimethyl amide (1:1) (Example 7)); 9 percent by weight (in 100 ml of solvent C8-C10 fatty acid methyl ester (Comparative Example C9)); 30 percent by weight (in 100 ml of solvent C8 fatty acid dimethylamide (Example 5)); 33 percent by weight (in 100 ml of solvent C10 fatty acid dimethyl amide (Example 6)); 35 percent by weight (in 100 ml of solvent C12 fatty acid dimethyl amide (Example 8)). Moreover, the Solubility runs as follows: (in 100 ml of solvent C18 fatty acid dimethyl amide (Comparative Example C8)) 22 percent by weight; (in 100 ml of solvent Di-C8 alkyl carbonate (Comparative Example C11)) 2 percent by weight; (in 100 ml of solvent Di-C8 alkyl ether (Comparative Example C12)) 2 percent by weight; (in 100 ml of solvent Triacetin (Comparative Example C10)) 6 percent by weight.

(Values after patent publication US20110124505A1, “Agricultural Compositions” (COGNIS IP MANAGEMENT GMBH, priority 2008, published 2011).)
